Reference: PubChem BioAssay AID1963445 (Molecular Pharmacology Branch, DTP, NCI, 2024)

Tested on: MCF7 complex spheroid growth, % test/control
Experiment: Anticancer human tumor MCF7 cell line growth inhibition [Asc];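 also: spheroids exposed to compounds for 7 days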;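 as to viability, T/C: 100% = DMSO vehicle control wells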
Conditions: for IC50: curve of first compound; for viability, T/C: stronger effect = lower value
How it was run: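 Stromal components (HUVEC and hMSC) are co-assembled with the cancer cells into multicellular spheroids. Drugs are then added singly or paired, at concentrations falling by half-log increments from a clinically achievable maximum, capped at 10 microM without known Cmax.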

For `Cc1nc(N2CCC3(CC2)COC(C)C3N)c(CO)nc1Sc1ccnc(N)c1Cl` (centres undefined) + CNC(C)C(=O)NC1CN(S(=O)(=O)c2cccc(S(=O)(=O)N3CCC4CCC(C(=O)NC(c5ccccc5)c5ccccc5)N4C(=O)C(NC(=O)C(C)NC)C3)c2)CCC2CCC(C(=O)NC(c3ccccc3)c3ccccc3)N2C1=O, the IC50 (second compound 0.00316 µM) was < 9.49 nM, the IC50 (second compound 0.01 µM) was < 9.49 nM and the IC50 (second compound 0.0316 µM) was < 9.49 nM. For the same compound, the IC50 (second compound 0.1 µM) was < 9.49 nM, the IC50 (second compound 0.316 µM) was < 9.49 nM and the IC50 (second compound 1 µM) was < 9.49 nM. It also gave a viability, T/C (second compound 0.00316 µM, first compound 0.00949 µM) of 26.7%, a viability, T/C (second compound 0.00316 µM, first compound 0.03 µM) of 31.8% and a viability, T/C (second compound 0.00316 µM, first compound 0.0949 µM) of 19.9%. It also gave a viability, T/C (second compound 0.00316 µM, first compound 0.3 µM) of 17.6%, a viability, T/C (second compound 0.00316 µM, first compound 0.949 µM) of 10.6% and a viability, T/C (second compound 0.00316 µM, first compound 3 µM) of 10.9%. For the same compound, the viability, T/C (second compound 0.01 µM, first compound 0.00949 µM) was 15.9%, the viability, T/C (second compound 0.01 µM, first compound 0.03 µM) was 11.2% and the viability, T/C (second compound 0.01 µM, first compound 0.0949 µM) was 10.3%. The viability, T/C (second compound 0.01 µM, first compound 0.3 µM) was 13%, the viability, T/C (second compound 0.01 µM, first compound 0.949 µM) was 11.4% and the viability, T/C (second compound 0.01 µM, first compound 3 µM) was 11.1%. For the same compound, the viability, T/C (second compound 0.0316 µM, first compound 0.00949 µM) was 12.7%, the viability, T/C (second compound 0.0316 µM, first compound 0.03 µM) was 10.7% and the viability, T/C (second compound 0.0316 µM, first compound 0.0949 µM) was 12.2%. It also gave a viability, T/C (second compound 0.0316 µM, first compound 0.3 µM) of 11.9%, a viability, T/C (second compound 0.0316 µM, first compound 0.949 µM) of 11.3% and a viability, T/C (second compound 0.0316 µM, first compound 3 µM) of 9.37%. The viability, T/C (second compound 0.1 µM, first compound 0.00949 µM) was 10.1%, the viability, T/C (second compound 0.1 µM, first compound 0.03 µM) was 12.7% and the viability, T/C (second compound 0.1 µM, first compound 0.0949 µM) was 11.3%. It also gave a viability, T/C (second compound 0.1 µM, first compound 0.3 µM) of 10.4%, a viability, T/C (second compound 0.1 µM, first compound 0.949 µM) of 10.6% and a viability, T/C (second compound 0.1 µM, first compound 3 µM) of 10.1%. The viability, T/C (second compound 0.316 µM, first compound 0.00949 µM) was 13.9%, the viability, T/C (second compound 0.316 µM, first compound 0.03 µM) was 12.2% and the viability, T/C (second compound 0.316 µM, first compound 0.0949 µM) was 11.5%. For the same compound, the viability, T/C (second compound 0.316 µM, first compound 0.3 µM) was 11.6%, the viability, T/C (second compound 0.316 µM, first compound 0.949 µM) was 12.3% and the viability, T/C (second compound 0.316 µM, first compound 3 µM) was 12%. It also gave a viability, T/C (second compound 1 µM, first compound 0.00949 µM) of 13.6%, a viability, T/C (second compound 1 µM, first compound 0.03 µM) of 12.7% and a viability, T/C (second compound 1 µM, first compound 0.0949 µM) of 14.2%. The viability, T/C (second compound 1 µM, first compound 0.3 µM) was 11.9%, the viability, T/C (second compound 1 µM, first compound 0.949 µM) was 12.6% and the viability, T/C (second compound 1 µM, first compound 3 µM) was 11.9%.

With `Cn1ncnc1[C@H]1c2n[nH]c(=O)c3cc(F)cc(c23)N[C@@H]1c1ccc(F)cc1` + CNC(C)C(=O)NC1CN(S(=O)(=O)c2cccc(S(=O)(=O)N3CCC4CCC(C(=O)NC(c5ccccc5)c5ccccc5)N4C(=O)C(NC(=O)C(C)NC)C3)c2)CCC2CCC(C(=O)NC(c3ccccc3)c3ccccc3)N2C1=O the IC50 (second compound 0.00316 µM) was < 0.316 nM, the IC50 (second compound 0.01 µM) was < 0.316 nM and the IC50 (second compound 0.0316 µM) was < 0.316 nM. The IC50 (second compound 0.1 µM) was < 0.316 nM, the IC50 (second compound 0.316 µM) was < 0.316 nM and the IC50 (second compound 1 µM) was < 0.316 nM. The viability, T/C (second compound 0.00316 µM, first compound 0.000316 µM) was 13.7%, the viability, T/C (second compound 0.00316 µM, first compound 0.001 µM) was 11.2% and the viability, T/C (second compound 0.00316 µM, first compound 0.00316 µM) was 11.4%. For the same compound, the viability, T/C (second compound 0.00316 µM, first compound 0.01 µM) was 13.2%, the viability, T/C (second compound 0.00316 µM, first compound 0.0316 µM) was 12.5% and the viability, T/C (second compound 0.00316 µM, first compound 0.1 µM) was 10.1%. The viability, T/C (second compound 0.01 µM, first compound 0.000316 µM) was 12.8%, the viability, T/C (second compound 0.01 µM, first compound 0.001 µM) was 12.4% and the viability, T/C (second compound 0.01 µM, first compound 0.00316 µM) was 14.8%. The viability, T/C (second compound 0.01 µM, first compound 0.01 µM) was 12.8%, the viability, T/C (second compound 0.01 µM, first compound 0.0316 µM) was 12.4% and the viability, T/C (second compound 0.01 µM, first compound 0.1 µM) was 12.7%. It also gave a viability, T/C (second compound 0.0316 µM, first compound 0.000316 µM) of 10.1%, a viability, T/C (second compound 0.0316 µM, first compound 0.001 µM) of 10.7% and a viability, T/C (second compound 0.0316 µM, first compound 0.00316 µM) of 12.2%. For the same compound, the viability, T/C (second compound 0.0316 µM, first compound 0.01 µM) was 9.67%, the viability, T/C (second compound 0.0316 µM, first compound 0.0316 µM) was 9.98% and the viability, T/C (second compound 0.0316 µM, first compound 0.1 µM) was 12.2%. The viability, T/C (second compound 0.1 µM, first compound 0.000316 µM) was 11.1%, the viability, T/C (second compound 0.1 µM, first compound 0.001 µM) was 14.1% and the viability, T/C (second compound 0.1 µM, first compound 0.00316 µM) was 11.7%. It also gave a viability, T/C (second compound 0.1 µM, first compound 0.01 µM) of 11.5%, a viability, T/C (second compound 0.1 µM, first compound 0.0316 µM) of 10.3% and a viability, T/C (second compound 0.1 µM, first compound 0.1 µM) of 11.4%. For the same compound, the viability, T/C (second compound 0.316 µM, first compound 0.000316 µM) was 10.9%, the viability, T/C (second compound 0.316 µM, first compound 0.001 µM) was 10.8% and the viability, T/C (second compound 0.316 µM, first compound 0.00316 µM) was 13%. It also gave a viability, T/C (second compound 0.316 µM, first compound 0.01 µM) of 11.1%, a viability, T/C (second compound 0.316 µM, first compound 0.0316 µM) of 11.9% and a viability, T/C (second compound 0.316 µM, first compound 0.1 µM) of 12.8%. For the same compound, the viability, T/C (second compound 1 µM, first compound 0.000316 µM) was 14.7%, the viability, T/C (second compound 1 µM, first compound 0.001 µM) was 13.5% and the viability, T/C (second compound 1 µM, first compound 0.00316 µM) was 12.3%. The viability, T/C (second compound 1 µM, first compound 0.01 µM) was 12.8%, the viability, T/C (second compound 1 µM, first compound 0.0316 µM) was 9.82% and the viability, T/C (second compound 1 µM, first compound 0.1 µM) was 13.9%.
